How the values were obtained:
HT-29 [1] = test: Photocytotoxicity against human HT-29 cells with high expression of alphaVbeta3 integrin assessed as decrease in cell viability preincubated for 24 hrs followed by red light irradiation and measured after overnight incubation by MTT assay; format: functional, cell-based; details: HT-29, light or radiation study
H22 [2] = test: Dark toxicity against […] cells expressing integrin xenografted in KM mouse at 0.5 nmol/g, iv administered 12 hrs measured every other day for 14 days; format: organism-based; details: in vivo, 336 h
[3] = Aggregation behavior of compound in RPMI 1640 medium with 0.05% cremophor EL at 3 uM by UV-vis absorption spectra analysis; format: physicochemical
MCF7 [4] = test: Induction of reactive oxygen species formation in human MCF7 cells with […] expression of alphaVbeta3 integrin preincubated for 2 hrs followed by incubation with DCF-DA dye for 30 mins and measured after irradiation by fluorescence assay; format: functional, cell-based
[5] = Selectivity ratio of IC50 for human MCF7 cells with low expression of alphaVbeta3 integrin to IC50 for human HT-29 cells with high expression of alphaVbeta3 integrin preincubated for 24 hrs followed by red light irradiation and measured after overnight incubation by MTT assay; format: functional
Mus musculus [6] = test: Drug uptake in KM mouse xenografted with […] cells at 0.5 nmol/g, iv measured after 24 hrs by fluorescence imaging method; format: ADME, organism-based; details: in vivo
[7] = Selectivity index, ratio of IC50 for photocytotoxicity against human HaCaT cells to IC50 for photocytotoxicity against human HT-29 cells with high expression of alphaVbeta3 integrin; format: toxicity, cell-based; details: read-out: Ratio IC50
Mus musculus [8] = test: Drug uptake in KM mouse xenografted with […] cells at 0.5 nmol/g, iv measured up to 24 hrs by fluorescence imaging method; format: ADME, organism-based; details: in vivo
[9] = Dark toxicity against human MCF7 cells with low expression of alphaVbeta3 integrin assessed as decrease in cell viability incubated for 2 to 24 hrs by MTT assay; format: cell-based
[10] = Ratio of drug level in tumor of KM mouse xenografted with […] cells expressing integrin to kidney of KM mouse xenografted with […] cells at 0.5 nmol/g, iv measured after 24 hrs; format: ADME, organism-based, Tumor/tissue; details: in vivo
HaCaT [11] = test: Photocytotoxicity against human HaCaT cells assessed as decrease in cell viability preincubated for 24 hrs followed by red light irradiation and measured after overnight incubation by MTT assay; format: cell-based; details: light or radiation study
[12] = Selectivity ratio of IC50 for human MCF7 cells with low expression of alphaVbeta3 integrin to IC50 for human HT-29 cells with high expression of alphaVbeta3 integrin preincubated for 2 hrs followed by red light irradiation and measured after overnight incubation by MTT assay; format: functional
MCF7 [13] = test: Photocytotoxicity against human MCF7 cells with low expression of alphaVbeta3 integrin assessed as decrease in cell viability preincubated for 24 hrs followed by red light irradiation and measured after overnight incubation by MTT assay; format: functional, cell-based; details: MCF7, light or radiation study
[14] = Drug uptake in human MCF7 cells at 1 uM after 24 hrs by confocal laser scanning microscopic method; format: ADME, cell-based; details: mcf7, 24 h
HT-29 [15] = test: Photocytotoxicity against human HT-29 cells with high expression of alphaVbeta3 integrin assessed as decrease in cell viability preincubated for 2 hrs followed by red light irradiation and measured after overnight incubation by MTT assay; format: functional, cell-based; details: HT-29, light or radiation study
HT-29 [16] = test: Induction of reactive oxygen species formation in human HT-29 cells with high expression of alphaVbeta3 integrin preincubated for 2 hrs followed by DCF-DA dye addition and measured after 30 mins in absence of light by fluorescence assay; format: cell-based; details: ht-29, 0.5 h
MCF7 [17] = test: Photocytotoxicity against human MCF7 cells with low expression of alphaVbeta3 integrin assessed as decrease in cell viability preincubated for 2 hrs followed by red light irradiation and measured after overnight incubation by MTT assay; format: functional, cell-based; details: MCF7, light or radiation study
H22 [18] = test: Antitumor activity against […] cells expressing integrin xenografted in KM mouse assessed as tumor growth inhibition at 0.5 nmol/g, iv administered 12 hrs followed by irradiation with laser for 6 mins and measured after 14 days; format: functional
[19] = Aggregation behavior of compound in water at 3 uM by UV-vis absorption spectra analysis; format: physicochemical; details: buffer
MCF7 [20] = test: Induction of reactive oxygen species formation in human MCF7 cells with low expression of alphaVbeta3 integrin preincubated for 2 hrs followed by DCF-DA dye addition and measured after 30 mins in absence of light by fluorescence assay; format: cell-based; details: mcf7, 0.5 h
[21] = Dark toxicity against human HT-29 cells with high expression of alphaVbeta3 integrin assessed as decrease in cell viability incubated for 2 to 24 hrs by MTT assay; format: cell-based
[22] = Drug uptake in tumor of KM mouse xenografted with […] cells expressing integrin at 0.5 nmol/g, iv measured after 1 to 24 hrs by fluorescence imaging method; format: ADME, organism-based, Neoplasm; details: in vivo
HaCaT [23] = test: Photocytotoxicity against human HaCaT cells assessed as decrease in cell viability preincubated for 2 hrs followed by red light irradiation and measured after overnight incubation by MTT assay; format: cell-based; details: light or radiation study
[24] = Drug uptake in lysosome of human HT-29 cells at 1 uM incubated for 0.5 hrs by Lyso Tracker red dye-based confocal laser scanning microscopic method; format: ADME, subcellular; details: ht-29, 0.5 h
HT-29 [25] = test: Induction of reactive oxygen species formation in human HT-29 cells with high expression of alphaVbeta3 integrin preincubated for 2 hrs followed by incubation with DCF-DA dye for 30 mins and measured after irradiation by fluorescence assay; format: functional, cell-based
[26] = Aggregation behavior of compound in DMF at 1 to 6 uM by UV-vis absorption spectra analysis; format: physicochemical
[27] = Photostability in DMF assessed as release of singlet oxygen at 4 uM preincubated with DPBF in dark followed by irradiation with red light by DPBF decay assay; format: functional
[28] = Ratio of drug level in tumor of KM mouse xenografted with […] cells expressing integrin to liver of KM mouse xenografted with […] cells at 0.5 nmol/g, iv measured after 24 hrs; format: ADME, organism-based, Tumor/tissue; details: in vivo
[29] = Aggregation behavior of compound in DMF by UV-vis absorption spectra analysis; format: physicochemical
[30] = Drug uptake in human HT-29 cells at 1 uM after 2 to 24 hrs by confocal laser scanning microscopic method; format: ADME, cell-based; details: ht-29, 1 µM
[31] = Drug uptake in spleen of KM mouse xenografted with […] cells expressing integrin at 0.5 nmol/g, iv measured after 24 hrs by fluorescence imaging method; format: ADME, organism-based; details: in vivo
[32] = Drug uptake in skin of KM mouse xenografted with […] cells expressing integrin at 0.5 nmol/g, iv measured after 24 hrs by fluorescence imaging method; format: ADME, organism-based, Zone of skin; details: in vivo
[33] = Drug uptake in mitochondria of human HT-29 cells at 1 uM incubated for 0.5 hrs by Mito Tracker green dye-based confocal laser scanning microscopic method; format: ADME; details: ht-29, 0.5 h
[34] = Drug uptake in liver of KM mouse xenografted with […] cells expressing integrin at 0.5 nmol/g, iv measured after 24 hrs by fluorescence imaging method; format: ADME, organism-based; details: in vivo
[35] = Drug uptake in heart of KM mouse xenografted with […] cells expressing integrin at 0.5 nmol/g, iv measured after 24 hrs by fluorescence imaging method; format: ADME, organism-based; details: in vivo
[36] = Drug uptake in kidney of KM mouse xenografted with […] cells expressing integrin at 0.5 nmol/g, iv measured after 24 hrs by fluorescence imaging method; format: ADME, organism-based; details: in vivo
[37] = Drug uptake in lung of KM mouse xenografted with […] cells expressing integrin at 0.5 nmol/g, iv measured after 24 hrs by fluorescence imaging method; format: ADME, organism-based; details: in vivo
[38] = Drug uptake in tumor of KM mouse xenografted with […] cells expressing integrin at 0.5 nmol/g, iv measured after 24 hrs by fluorescence imaging method; format: ADME, organism-based, Neoplasm; details: in vivo

Row | Compound | Activity [3] | Drug uptake (Mus musculus [8]) | Activity [19] | Drug uptake [24] | Activity [26] | IC50 (HT-29 [1]) | Ratio IC50 [5] | Ratio IC50 [12] | IC50 (MCF7 [13]) | IC50 (HT-29 [15]) | IC50 (MCF7 [17]) | Stability [27] | also measured
1 | OCCOCCOCCO[Si]1(OCCOCCOCCO)n2c3c4ccccc4c2/N=C2N=C(/N=c4/c5ccccc5/c(n41)=N/C1=NC(=N\3)/c3ccccc31)c1ccccc1\2 | – | Not Active | – | Active | – | 0.3 nM | 1 | 1 | 0.3 nM | 0.3 nM | 0.3 nM | Unstable | Activity [29]: Not Active; Drug uptake [30]: Active; Drug uptake [31]: Not Active; Drug uptake [32]: Not Active; Drug uptake [33]: Active; Drug uptake [34]: Not Active; Drug uptake [35]: Not Active; Drug uptake [36]: Not Active; Drug uptake [37]: Not Active; Drug uptake [38]: Not Active
2 | N=C(N)NCCC[C@@H]1NC(=O)[C@H](Cc2cn(CCOCCO[Si]3(OCCOCCO)n4c5c6ccccc6c4/N=C4N=C(/N=c6/c7ccccc7/c(n63)=N/C3=NC(=N\5)/c5ccccc53)c3ccccc3\4)nn2)NC(=O)[C@@H](Cc2ccccc2)NC(=O)[C@H](CC(=O)O)NC(=O)CNC1=O (some centres not stated) | Not Active | – | Not Active | – | Not Active | 35 nM | 1.11 | 1 | 39 nM | 33 nM | 33 nM | Unstable | –

Continued, in another order:

Row | Activity [3] | Drug uptake (Mus musculus [8]) | Activity [19] | Drug uptake [24] | Activity [26] | Compound | IC50 (HT-29 [1]) | Ratio IC50 [5] | Ratio IC50 [12] | IC50 (MCF7 [13]) | IC50 (HT-29 [15]) | IC50 (MCF7 [17]) | Stability [27] | also measured
3 | Not Active | Active | Not Active | Active | Not Active | N=C(N)NCCC[C@@H]1NC(=O)[C@H](Cc2cn(CCOCCOCCO[Si]3(OCCOCCOCCn4cc(C[C@@H]5NC(=O)[C@@H](Cc6ccccc6)NC(=O)[C@H](CC(=O)O)NC(=O)CNC(=O)[C@H](CCCNC(=N)N)NC5=O)nn4)n4c5c6ccccc6c4/N=C4N=C(/N=c6/c7ccccc7/c(n63)=N/C3=NC(=N\5)/c5ccccc53)c3ccccc3\4)nn2)NC(=O)[C@@H](Cc2ccccc2)NC(=O)[C@H](CC(=O)O)NC(=O)CNC1=O (some centres not stated) | 23 nM | 2.87 | 3.33 | 66 nM | 30 nM | 100 nM | Unstable | Activity (H22 [2]): Non-Toxic; Activity (MCF7 [4]): Dose-dependent effect; Drug uptake (Mus musculus [6]): Not Active; selectivity ratio [7]: 2; Activity [9]: Non-Toxic; Ratio [10]: 2; IC50 (HaCaT [11]): 56 nM; Drug uptake [14]: Not Active; Activity (HT-29 [16]): Non-Toxic; TGI (H22 [18]): 75%; Activity (MCF7 [20]): Non-Toxic; Activity [21]: Non-Toxic; Drug uptake [22]: Active; IC50 (HaCaT [23]): 60 nM; Activity (HT-29 [25]): Dose-dependent effect; Ratio [28]: 2.1
4 | Not Active | – | Not Active | – | Not Active | N=C(N)NCCC[C@@H]1NC(=O)[C@H](Cc2cn(CCOCCOCCOCCO[Si]3(OCCOCCOCCOCCO)n4c5c6ccccc6c4/N=C4N=C(/N=c6/c7ccccc7/c(n63)=N/C3=NC(=N\5)/c5ccccc53)c3ccccc3\4)nn2)NC(=O)[C@@H](Cc2ccccc2)NC(=O)[C@H](CC(=O)O)NC(=O)CNC1=O (some centres not stated) | 32 nM | 1.03 | 1.09 | 33 nM | 32 nM | 35 nM | Unstable | –
5 | Not Active | – | Not Active | – | Not Active | N=C(N)NCCC[C@@H]1NC(=O)[C@H](Cc2cn(CCOCCO[Si]3(OCCOCCn4cc(C[C@@H]5NC(=O)[C@@H](Cc6ccccc6)NC(=O)[C@H](CC(=O)O)NC(=O)CNC(=O)[C@H](CCCNC(=N)N)NC5=O)nn4)n4c5c6ccccc6c4/N=C4N=C(/N=c6/c7ccccc7/c(n63)=N/C3=NC(=N\5)/c5ccccc53)c3ccccc3\4)nn2)NC(=O)[C@@H](Cc2ccccc2)NC(=O)[C@H](CC(=O)O)NC(=O)CNC1=O (some centres not stated) | 14 nM | 1.64 | 1.73 | 23 nM | 22 nM | 38 nM | Unstable | –
6 | Not Active | – | Not Active | – | Not Active | N=C(N)NCCC[C@@H]1NC(=O)[C@H](Cc2cn(CCOCCOCCOCCO[Si]3(OCCOCCOCCOCCn4cc(C[C@@H]5NC(=O)[C@@H](Cc6ccccc6)NC(=O)[C@H](CC(=O)O)NC(=O)CNC(=O)[C@H](CCCNC(=N)N)NC5=O)nn4)n4c5c6ccccc6c4/N=C4N=C(/N=c6/c7ccccc7/c(n63)=N/C3=NC(=N\5)/c5ccccc53)c3ccccc3\4)nn2)NC(=O)[C@@H](Cc2ccccc2)NC(=O)[C@H](CC(=O)O)NC(=O)CNC1=O (some centres not stated) | 13 nM | 2.46 | 1.68 | 32 nM | 19 nM | 32 nM | Unstable | –

Reference: ChEMBL document CHEMBL4152282, “Synthesis and photodynamic activities of integrin-targeting silicon(IV) phthalocyanine-cRGD conjugates” (Eur J Med Chem, 2018)
